Test results taken from patent publication US20130012466A1 (priority 2006, published 2013).
Entries after “also recorded” stand apart in the source; their conditions may differ. Read-outs that look alike come from different tables or passages of the source.

How the values were obtained:
SF-268 = experiment: Cytotoxicity assay (cell titer-glo and calcein AM), SF-268
HCT-116 = experiment: Cytotoxicity assay (cell titer-glo and calcein AM), HCT-116
tubulin = experiment: In vitro tubulin polymerization assay (fluorescence-based); format: biochemical; parameters: key to tubulin polymeriz.: ‘D’ designates destabilizer; ‘S’ designates stabilizer; details: for effect on tubulin polymerization / microtubules: tested in duplicate on at least two days
Description: In vitro tubulin polymerization assays were performed using a fluorescence-based assay (Cytoskeleton, Inc., Denver, Colo.). […] Aliquots (5 μL) of each compound or control were added to a 96-well black half area plate (Corning Costar, Inc.) pre-warmed to 37° C. Cold tubulin reaction mix (50 μL 1× Buffer—80 mM piperazine-N,N′-bis[2-ethanesulfonic acid]sequisodium salt; 2.0 mM magnesium chloride; 0.5 mM ethylene glycol-bis[β-amino-ethyl ether) N,N,N′,N′-tetra-acetic acid, pH 6.9, 10 μM fluorescent reporter; 20% tubulin glycerol buffer—80 mM piperazine-N,N′-bis[2-ethanesulfonic acid] sequisodium salt; 2.0 mM magnesium chloride; 0.5 mM ethylene glycol-bis(β-amino-ethyl ether) N,N,N′,N′-tetra-acetic acid, 60% v/v glycerol, pH 6.9, 1 mM GTP; and 2 mg mL^−1 tubulin stock) was added to each of the compounds. […] Polymerization curves were generated in Excel after background correction and the effects of test compounds were compared to controls.
Library members that accelerated the rate of tubulin polymerization were deemed microtubule stabilizers, whereas compounds that decelerated the rate of tubulin polymerization were deemed microtubule de-stabilizers.

NCI-H460 = experiment: Cytotoxicity assay (cell titer-glo and calcein AM), NCI-H460
ADR-RES = experiment: Cytotoxicity assay (cell titer-glo and calcein AM), ADR-RES
SK-OV-3 = experiment: Cytotoxicity assay (cell titer-glo and calcein AM), SK-OV-3
Hep3B = experiment: Cytotoxicity assay (cell titer-glo and calcein AM), Hep3B
Du145 = experiment: Cytotoxicity assay (cell titer-glo and calcein AM), Du145
A549 = experiment: Cytotoxicity assay (cell titer-glo and calcein AM), A549
[1] = test system: mouse mammary normal epithelial control cell line; experiment: Cytotoxicity assay, normal control cell line
MCF7 = experiment: Cytotoxicity assay (cell titer-glo and calcein AM), MCF7
A549 cells [2] = experiment: Drug combination study with colchicine (Chou-Talalay combination index)
Description: (§1) Ten thousand A549 cells per well were plated in triplicate in 96 well black tissue culture treated plates. Cells were incubated for one hour at 37° C. to allow cells to attach.
(§2) All synergy experiment results were replicated at least three times and the overall effects analyzed by averaging all combination indexes generated if the fraction affected was greater than 0.2.

A549 cells [3] = experiment: Drug combination study with paclitaxel (Chou-Talalay combination index);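 further: combination indexes averaged only over points where fraction affected exceeded 0.2, with each synergy experiment repeated at least three times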
Description: as §1, §2

[4] = Homo sapiens, SF-268, read-out: Cytotoxicity IC50, SF-268, calcein
[5] = Homo sapiens, HCT-116, read-out: Cytotoxicity IC50, HCT-116, CTG
[6] = Homo sapiens, HCT-116, read-out: Cytotoxicity IC50, HCT-116, calcein
[7] = Homo sapiens, NCI/ADR-RES, read-out: Cytotoxicity IC50, NCI/ADR RES, calcein
[8] = Homo sapiens, SK-OV-3, read-out: Cytotoxicity IC50, SK-OV-3, CTG
[9] = Homo sapiens, SK-OV-3, read-out: Cytotoxicity IC50, SK-OV-3, calcein
[10] = Homo sapiens, Hep3B, read-out: Cytotoxicity IC50, Hep 3B, calcein
[11] = Homo sapiens, DU-145, read-out: Cytotoxicity IC50, Du145, CTG
[12] = Homo sapiens, DU-145, read-out: Cytotoxicity IC50, Du145, calcein
[13] = combination index, colchicine held at IC10, A549 cells
[14] = drug combination, A549 cells, Chou-Talalay
[15] = combination index, paclitaxel held at IC10, A549 cells

`CC(=O)O[C@H]1C(=O)[C@@]2(C)[C@H]([C@H](OC(=O)c3ccccc3)[C@]3(O)C[C@H](OC(=O)[C@H](O)[C@@H](NC(=O)c4ccccc4)c4ccccc4)C(C)=C1C3(C)C)[C@]1(OC(C)=O)CO[C@@H]1C[C@@H]2O` [paclitaxel, reference compound] showed an IC50 (SF-268; [4]) of 315 nM, an IC50 (SF-268; Homo sapiens, SF-268, read-out: IC50 (SF-268)) of 315 nM and an IC50 (HCT-116; [5]) of 168 nM. The IC50 (HCT-116; [6]) was 275 nM, the IC50 (HCT-116; Homo sapiens, HCT-116, read-out: IC50 (HCT-116)) was 275 nM and the tubulin polymeriz. (tubulin) was “S”. For the same compound, the “effect on tubulin polymerization / microtubules” value (tubulin) was “stabilizing; also recorded: stabilized the microtubules”, the IC50 (NCI-H460; Homo sapiens, NCI-H460, read-out: IC50 (NCI-H460)) was 105 nM and the IC50 (ADR-RES; [7]) was 43 nM. For the same compound, the IC50 (ADR-RES; Homo sapiens, read-out: IC50 (ADR-RES)) was 43 nM, the IC50 (SK-OV-3; [8]) was 42 nM and the IC50 (SK-OV-3; [9]) was 34 nM. For the same compound, the IC50 (SK-OV-3; Homo sapiens, SK-OV-3, read-out: IC50 (SK-OV-3)) was 34 nM, the IC50 (Hep3B; [10]) was 166 nM and the IC50 (Hep3B; Homo sapiens, Hep3B, read-out: IC50 (Hep3B)) was 166 nM. For the same compound, the IC50 (Du145; [11]) was 432 nM, the IC50 (Du145; [12]) was 290 nM and the IC50 (Du145; Homo sapiens, DU-145, read-out: IC50 (Du145)) was 290 nM. For the same compound, the IC50 (A549; Homo sapiens, A549, read-out: IC50 (A549)) was 75 nM.

`COc1cc2c(c(OC)c1OC)-c1ccc(OC)c(=O)cc1C(NC(=O)CN(OC)C1CC(O)C(O)C(C)O1)CC2` [Col65, D-Digitoxoside] gave an IC50 (SF-268; read-out: Cytotoxicity IC50, SF-268, CTG, SF-268, CTG (cell titer-glo) readout, % error in parentheses) of 800 nM, an IC50 (SF-268; read-out: Cytotoxicity IC50, SF-268, calcein, SF-268, calcein AM readout, % error in parentheses) of 665 nM and an IC50 ([1]; read-out: Cytotoxicity IC50, NmuMG, CTG, CTG (cell titer-glo) readout, % error in parentheses) of 7750 nM. The IC50 ([1]; read-out: Cytotoxicity IC50, NmuMG, calcein, calcein AM readout, % error in parentheses) was 3320 nM, the IC50 (HCT-116; read-out: Cytotoxicity IC50, HCT-116, CTG, HCT-116, CTG (cell titer-glo) readout, % error in parentheses) was 918 nM and the IC50 (HCT-116; read-out: Cytotoxicity IC50, HCT-116, calcein, HCT-116, calcein AM readout, % error in parentheses) was 897 nM. The tubulin polymeriz. (tubulin) was “no effect”, the “effect on tubulin polymerization / microtubules” value (tubulin) was “no apparent effect” and the IC50 (NCI-H460; read-out: Cytotoxicity IC50, NCI-H460, CTG, NCI-H460, CTG (cell titer-glo) readout, % error in parentheses) was 862 nM. The IC50 (NCI-H460; read-out: Cytotoxicity IC50, NCI-H460, calcein, NCI-H460, calcein AM readout, % error in parentheses) was 744 nM, the IC50 (ADR-RES; read-out: Cytotoxicity IC50, NCI/ADR RES, CTG, NCI/ADR RES, CTG (cell titer-glo) readout, % error in parentheses) was 893 nM and the IC50 (ADR-RES; read-out: Cytotoxicity IC50, NCI/ADR RES, calcein, NCI/ADR RES, calcein AM readout, % error in parentheses) was 694 nM. It also gave an IC50 (SK-OV-3; read-out: Cytotoxicity IC50, SK-OV-3, CTG, SK-OV-3, CTG (cell titer-glo) readout, % error in parentheses) of 634 nM, an IC50 (SK-OV-3; read-out: Cytotoxicity IC50, SK-OV-3, calcein, SK-OV-3, calcein AM readout, % error in parentheses) of 1030 nM and an IC50 (Hep3B; read-out: Cytotoxicity IC50, Hep 3B, CTG, Hep 3B, CTG (cell titer-glo) readout, % error in parentheses) of 1700 nM. For the same compound, the IC50 (Hep3B; read-out: Cytotoxicity IC50, Hep 3B, calcein, Hep 3B, calcein AM readout, % error in parentheses) was 1880 nM, the IC50 (Du145; read-out: Cytotoxicity IC50, Du145, CTG, Du145, CTG (cell titer-glo) readout, % error in parentheses) was 850 nM and the IC50 (Du145; read-out: Cytotoxicity IC50, Du145, calcein, Du145, calcein AM readout, % error in parentheses) was 939 nM. The IC50 (MCF7; read-out: Cytotoxicity IC50, MCF7, CTG, CTG (cell titer-glo) readout, % error in parentheses) was 946 nM, the IC50 (MCF7; read-out: Cytotoxicity IC50, MCF7, calcein, calcein AM readout, % error in parentheses) was 648 nM and the IC50 (A549; read-out: Cytotoxicity IC50, A549, CTG, A549, CTG (cell titer-glo) readout, % error in parentheses) was 1490 nM. It also gave an IC50 (A549; read-out: Cytotoxicity IC50, A549, calcein, A549, calcein AM readout, % error in parentheses) of 2300 nM.

`CONCC(=O)N[C@H]1CCc2cc(OC)c(OC)c(OC)c2-c2ccc(OC)c(=O)cc21` [Col 8, 19-N-methoxyamino-colchicine] showed an IC50 (SF-268; Homo sapiens, SF-268, read-out: Cytotoxicity IC50, SF-268, CTG) of 116 nM, an IC50 (SF-268; [4]) of 191 nM and an IC50 (HCT-116; [5]) of 116 nM. The IC50 (HCT-116; [6]) was 98 nM, the IC50 (ADR-RES; Homo sapiens, NCI/ADR-RES, read-out: Cytotoxicity IC50, NCI/ADR RES, CTG) was 79 nM and the IC50 (ADR-RES; [7]) was 65 nM. For the same compound, the IC50 (SK-OV-3; [8]) was 455 nM, the IC50 (SK-OV-3; [9]) was 316 nM and the “plus colchicine, mean CI” value (A549 cells [2]; [13]) was 2.98. The “plus colchicine, median CI” value (A549 cells [2]; [13]) was 1.47, the “interaction with colchicine” value (A549 cells [2]; [14]) was “antagonism” and the IC50 (Hep3B; Homo sapiens, Hep3B, read-out: Cytotoxicity IC50, Hep 3B, CTG) was 141 nM. For the same compound, the IC50 (Hep3B; [10]) was 284 nM, the IC50 (Du145; [11]) was 64 nM and the IC50 (Du145; [12]) was 84 nM. For the same compound, the “plus paclitaxel, mean CI” value (A549 cells [3]; [15]) was 0.90, the “plus paclitaxel, median CI” value (A549 cells [3]; [15]) was 0.57 and the “interaction with paclitaxel/taxol” value (A549 cells [3]; [14]) was “synergy”.
